We go through 9 molecules from PubChem BioAssay (NCI).

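Interpolation was linear, between the two tested concentrations surrounding the appropriate level; five concentrations were tested over 48 hours in 96-well plates. Here, GI50 denotes the concentration required for 50% inhibition of growth. TGI marks complete inhibition of growth.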

Some test systems named below: SK-MEL-28 melanoma; U251 CNS; UACC-257 melanoma; DU-145 prostate; KM12 colon; NCI-H522 lung; SN12C renal; BT-549 breast; MALME-3M melanoma; RXF 393 renal.
Assay in all cases: inhibition of tumour cell growth, NCI panel, 48 h

For the molecule `NCCCC(=O)Nc1ccncc1`, the GI50 in the assay with SK-MEL-28 melanoma, with U251 CNS, in the assay with UACC-257 melanoma, in the assay with DU-145 prostate, in the assay with KM12 colon and in the assay on NCI-H522 lung was more than 100 µM in each case. Moreover, the GI50 with SN12C renal, with BT-549 breast and in the assay with MALME-3M melanoma was more than 100 µM throughout. The TGI in the assay on SK-MEL-28 melanoma, with U251 CNS, with UACC-257 melanoma, with DU-145 prostate, with KM12 colon and with NCI-H522 lung was more than 100 µM each time. Besides, the TGI with SN12C renal, in the assay with BT-549 breast and in the assay on MALME-3M melanoma was more than 100 µM in each case.
Take `O=C(/C=C/C=C/c1ccccc1)CCc1ccccc1`: the TGI in the assay on U251 CNS, with RXF 393 renal, in the assay with UACC-257 melanoma, in the assay on DU-145 prostate, in the assay on KM12 colon and with NCI-H522 lung was more than 100 µM in each case. Besides, the TGI in the assay on SN12C renal, in the assay with BT-549 breast and with MALME-3M melanoma was more than 100 µM throughout.
In the case of `O=C(Nc1ccc(-n2cc(-c3ccncc3)c(-c3ccc(Cl)c(O)c3)n2)cc1)Nc1cc(C(F)(F)F)cc(C(F)(F)F)c1`, the GI50 with SK-MEL-28 melanoma is 2.01 µM; with U251 CNS it was 1.51 µM; with RXF 393 renal, 1.45 µM; in the assay on UACC-257 melanoma it was 2.01 µM; in the assay with DU-145 prostate, 1.78 µM; in the assay with KM12 colon, 1.6 µM. In addition, the GI50 in the assay with SN12C renal is 2.03 µM; in the assay on BT-549 breast, 1.49 µM. The TGI came to 4.34 µM in the assay with SK-MEL-28 melanoma; 2.98 µM in the assay on U251 CNS; 3.45 µM in the assay with RXF 393 renal; 5.22 µM with UACC-257 melanoma; 3.34 µM in the assay on DU-145 prostate; 3.15 µM in the assay with KM12 colon. The TGI in the assay with SN12C renal was determined as 7.57 µM; in the assay on BT-549 breast it was 3.22 µM.
Consider `COc1ccc2nc(-c3ccccc3)cc(Nc3ccc(C(C)=O)cc3)c2c1`, for which the GI50 with SK-MEL-28 melanoma is 29.5 µM; in the assay with U251 CNS, 2.46 µM; in the assay with UACC-257 melanoma, 12 µM; with DU-145 prostate, 14.1 µM; in the assay on KM12 colon, 1.88 µM; in the assay on NCI-H522 lung, 17.7 µM. The GI50 in the assay on SN12C renal was 1.87 µM; in the assay with BT-549 breast, 15.3 µM; in the assay on MALME-3M melanoma, 5.28 µM. Further, the TGI was more than 100 µM in the assay on SK-MEL-28 melanoma; 10.8 µM with U251 CNS; 32.6 µM in the assay on UACC-257 melanoma; 27.1 µM in the assay on DU-145 prostate; 5.2 µM in the assay with KM12 colon; more than 100 µM in the assay on NCI-H522 lung. In addition, the results for the TGI with SN12C renal, with BT-549 breast and in the assay with MALME-3M melanoma were 4.66 µM, 37.5 µM and 18.7 µM, respectively.
As to `COc1ccc2c(c1)nc(N)c1c3cc(OC)c(OC)cc3cn21`, the TGI in the assay with SK-MEL-28 melanoma came out at 19.9 µM; in the assay on U251 CNS, 14.6 µM; in the assay on UACC-257 melanoma, 27.2 µM; in the assay on DU-145 prostate, 8.63 µM; in the assay with KM12 colon, 12.7 µM; in the assay on SN12C renal, 17.5 µM. Also, the TGI in the assay on BT-549 breast came to 15.2 µM; in the assay on MALME-3M melanoma, 37.7 µM. Besides, the GI50 in the assay on U251 CNS is 0.118 µM; with UACC-257 melanoma it was 11.4 µM; in the assay on KM12 colon, 0.014 µM; in the assay on NCI-H522 lung, less than 0.01 µM; in the assay with SN12C renal it was 0.147 µM; with BT-549 breast it was 0.827 µM. Further, in the assay with MALME-3M melanoma, the GI50 is 9.39 µM.
For `CCC1=C[C@@H]2CN(C1)Cc1c([nH]c3ccccc13)[C@@](C(=O)OC)(c1cc3c(cc1OC)N(C=O)[C@H]1[C@@](O)(C(=O)OC)[C@H](OC(C)=O)[C@]4(CC)[C@@H]5C[C@@H]5CN5CC[C@]31[C@@H]54)C2`, the GI50 was 0.0014 µM in the assay with SK-MEL-28 melanoma; 0.000676 µM with U251 CNS; 0.00155 µM in the assay with RXF 393 renal; more than 6.25 µM in the assay with UACC-257 melanoma; less than 0.000625 µM with DU-145 prostate; less than 0.000625 µM in the assay on KM12 colon. Also, the GI50 with NCI-H522 lung is less than 0.000625 µM; with SN12C renal, 0.0228 µM; in the assay on BT-549 breast, 0.00166 µM. Besides, the TGI is more than 6.25 µM with SK-MEL-28 melanoma; more than 6.25 µM in the assay on U251 CNS; more than 6.25 µM with RXF 393 renal; more than 6.25 µM in the assay with UACC-257 melanoma; 0.01 µM with NCI-H522 lung; more than 6.25 µM in the assay on SN12C renal. The TGI in the assay with BT-549 breast turned out to be 0.211 µM.
Consider `C=C1C[C@@H]2C/C=C/C(=O)C/C(C)=C\C=C\C(=O)O[C@H](C=O)C/C(C)=C/[C@H](C1)O2`, for which the GI50 in the assay with SK-MEL-28 melanoma is 2.91 µM; in the assay on U251 CNS, 0.711 µM; with UACC-257 melanoma, 14.1 µM; with DU-145 prostate it was 0.455 µM; in the assay on KM12 colon, 1.17 µM; in the assay on NCI-H522 lung, 4.48 µM. Further, the results for the GI50 in the assay on SN12C renal, in the assay with BT-549 breast and in the assay on MALME-3M melanoma were 0.697 µM, 0.315 µM and 13.6 µM, respectively. Further, the TGI amounted to 20.5 µM in the assay with SK-MEL-28 melanoma; 14.1 µM with U251 CNS; 34.7 µM in the assay on UACC-257 melanoma; 2.32 µM in the assay on DU-145 prostate; 12.2 µM in the assay with KM12 colon; 19.5 µM with NCI-H522 lung. Moreover, the values for the TGI in the assay with SN12C renal, in the assay on BT-549 breast and in the assay on MALME-3M melanoma were 20.4 µM, 0.94 µM and 38.4 µM, respectively.
As to `N#CC1=C(N)OC2=C(COc3ccc(F)cc32)C1c1ccc(Cl)cc1` (stereo unspecified), the GI50 in the assay on U251 CNS was 32.6 µM; with RXF 393 renal, more than 100 µM; in the assay on UACC-257 melanoma, 41.6 µM; in the assay with DU-145 prostate, 44.1 µM; in the assay with KM12 colon, 33.4 µM; in the assay with NCI-H522 lung, 38.2 µM. For the same molecule, the GI50 in the assay on SN12C renal was 28.3 µM; in the assay with BT-549 breast, 27.3 µM; in the assay with MALME-3M melanoma, 47.9 µM. Also, the TGI was more than 100 µM with U251 CNS; more than 100 µM in the assay with RXF 393 renal; more than 100 µM in the assay with UACC-257 melanoma; more than 100 µM in the assay on DU-145 prostate; more than 100 µM in the assay with KM12 colon; 93.6 µM with NCI-H522 lung. The TGI with SN12C renal is more than 100 µM; in the assay on BT-549 breast it was 73.5 µM; with MALME-3M melanoma, 94.9 µM.
For the molecule `COC(=O)COc1ccc(/C=C2\N=C(c3ccccc3)N(c3cc(C(F)(F)F)ccc3Cl)C2=O)cc1`, the GI50 is more than 100 µM with SK-MEL-28 melanoma; 46.4 µM with U251 CNS; more than 100 µM in the assay with RXF 393 renal; 51.5 µM with DU-145 prostate; 42.3 µM in the assay on KM12 colon; 24.1 µM in the assay on NCI-H522 lung. Further, the values for the GI50 in the assay with SN12C renal, in the assay with BT-549 breast and in the assay on MALME-3M melanoma were more than 100 µM, 28.1 µM and 54.1 µM, respectively. Moreover, the TGI with SK-MEL-28 melanoma is more than 100 µM; with U251 CNS it was more than 100 µM; in the assay on RXF 393 renal, more than 100 µM; with DU-145 prostate, more than 100 µM; with KM12 colon, more than 100 µM; with NCI-H522 lung, 68.8 µM. For the same molecule, the TGI in the assay with SN12C renal is more than 100 µM; with BT-549 breast, 94.2 µM; with MALME-3M melanoma, more than 100 µM.
